Here are results for one molecule from PMC11528066, “Noninvasive Monitoring of Programmed Death-Ligand 2 Expression with Positron Emission Tomography using ^68Ga-labeled Peptide Antagonist in Preclinical and Exploratory Human Studies” (Research, 2024).

What is called logD is the decadic logarithm of the distribution of all forms, ionised or not, between an organic phase and buffer at a given pH.

Peptide text beside a SMILES is read from it. * marks the point of attachment. NOTA = O=C(O)CN1CCN(CC(=O)O)CCN(CC(=O)*)CC1; AEEEA = NCCOCCOCCOCC(=O)O Bounds are passed on as bounds.

The nature of series [1]: In vitro stability in saline (radio-HPLC). Type of series: physicochemical. The conditions noted are these: room temperature, over 4 h (0.5, 1, 2, 4 h), 3.74 MBq. The method, then: (§1) The in vitro stability of [^68Ga]Ga-HN11-1 and [^68Ga]Ga-HN11-2 (3.74 MBq) in saline and serum was tested by radio-HPLC analysis of its radiochemical purity after incubation at room temperature for 0.5 , 1 , 2 and 4 h.

Series [2] in a line: Partition coefficient (log P), 1-octanol/PBS. It is filed as physicochemical. The conditions noted are these: shake-flask 3 mL 1-octanol / 3 mL PBS pH 7.4, vortex 10 min, centrifugation 10,000 rpm 10 min, γ-counter, mean ± SD, n = 5. The protocol: The partition coefficients were assessed using the method described previously. [^68Ga]Ga-HN11-1 and [^68Ga]Ga-HN11-2 was respectively introduced into a mixture comprising 3 mL of 1-octanol and 3 mL of phosphate-buffered saline (PBS) with a pH of 7.4. Following vortexing for 10 minutes and subsequent centrifugation at 10,000 rpm for 10 minutes, samples were taken from both layers and counted using a γ-counter. The log P was determined using the formula: log P = log([M]oct/[M]aq). All measurements were conducted using 5 independent samples and are presented as mean ± standard deviation (SD).

A short description of series [3]: Safety after intravenous injection in volunteers and patients. Type of series: in vivo, human. The conditions noted are these: 3 healthy volunteers and 6 patients, intravenous injection 3.1 to 4.9 MBq/kg. The method, then: The program content was explained to all healthy volunteers and cancer patients, and written informed consent was obtained. Whole-body dynamic imaging was conducted for 60 min using a PET/CT 690 Elite scanner (GE Discovery) immediately after intravenous injection of [^68Ga]Ga-HN11-1 (3.1 to 4.9 MBq/kg). A static body scan was performed 15 to 45 min after injection. All cancer patients underwent [^18F]F-FDG and [^68Ga]Ga-HN11-1 PET/CT imaging within 5 d. Two nuclear medicine physicians reconstructed and reviewed the images on GE aw 4.6 workstations and reached a consensus. They delineated the ROIs and measured the values of maximum standard uptake and average standard uptake (SUVmax and SUVmean). The biological distribution of [^68Ga]Ga-HN11-1 in healthy volunteers was determined by SUVmax and SUVmean. The OLINDA/EXM software (version 1.0, Hermes Medical Solutions AB) was used to estimate the human radiation dose based on the SUVmean of each organ.

Series [4] has as its system A549-PD-L2 tumor xenograft models. The experiment in a line: Dynamic micro-PET imaging in A549-PD-L2 xenografts. Type of series: in vivo, BALB/C nude mice. The conditions noted are these: n = 3. The protocol: (§2) Micro-PET imaging was conducted using an Inveon PET scanner (Siemens, Germany). Dynamic PET examine were acquired over the first 60 min following the simultaneous injection of 7.4 to 9.25 MBq (200 to 250 μCi) of [^68Ga]Ga-HN11-1 and [^68Ga]Ga-HN11-2. After reconstructing the images and delineating the regions of interest (ROIs), time-radioactivity curves were plotted to obtain the Tumor/Muscle (T/M) ratios. %ID/g represents the percentage of the injected dose of the radiotracer that accumulates in a specific tissue per gram of tissue weight. For the biodistribution study, the xenograft models received an intravenous injection of 3.7 to 5.5 MBq (100 to 150 μCi) of [^68Ga]Ga-HN11-1. After the designated period (10, 30, 60, and 90 min), the mice were euthanized, and important tissues and organs were dissected and collected. The samples were counted using the γ-counter for determining the %ID/g, presented as mean ± standard deviation (SD).
A549 cell lines were provided by the China Center for Type Culture Collection (CCTCC) and cultured in RPMI-1640 medium supplemented with 10 % fetal bovine serum and 100 U/mL penicillin-streptomycin. The lentivirus system was implemented to introduce PD-L2 (PDCD1LG2) over-expressed cDNA into the A549 cells. The viral vectors were produced in 293T cells and co-transfected with the psAX2, pMD2G and PD-L2 plasmids. A549 cells transduced with the vectors were selectively grown in 1.6 μg/mL puromycin. Transfection efficiency was identified by WB and real-time quantitative PCR. All the cells were cultured in an incubator at 37° C with 5 % CO2 atmosphere. A549 and A549-PD-L2 cells (5 × 10^6, 200 μL)were subcutaneously implanted into the right shoulder of BALB/C nude mice (male, 4-6 weeks), respectively. When the tumors reached to 5 - 8 mm in diameter, the mice were subjected to in vivo and ex vivo studies. All the mice were purchased from the Laboratory Animal Center of Central South University.

Series [5] has as its system A549 tumor xenograft models. The experiment in a line: Dynamic micro-PET imaging in A549 xenografts. Type of series: in vivo, BALB/C nude mice. To be noted: each time point 10 to 60 min, n = 3. The protocol:
as §2
A549 cell lines were provided by the China Center for Type Culture Collection (CCTCC) and cultured in RPMI-1640 medium supplemented with 10 % fetal bovine serum and 100 U/mL penicillin-streptomycin. The lentivirus system was implemented to introduce PD-L2 (PDCD1LG2) over-expressed cDNA into the A549 cells. […] Transfection efficiency was identified by WB and real-time quantitative PCR. […]

The test system of series [6] is A549-PD-L2 xenograft models. The experiment in a line: Static PET/CT imaging with blocking. Type of series: in vivo, BALB/C nude mice. To be noted: 60 min, pretreatment i.v. with excess HN11-1 / HN11-2 (10 mg/kg), n = 3. The protocol: The static PET/CT imaging in A549 and A549-PD-L2 xenograft models after injection of 5.55 to 7.4 MBq (150 to 200 μCi) of [^68Ga]Ga-HN11-1 or [^68Ga]Ga-HN11-2 were acquired at 60 min. In the [^68Ga]Ga-HN11-1 + block or [^68Ga]Ga-HN11-2 + block groups, the xenograft models underwent pretreatment via intravenous injection of HN11-1 or HN-2 (10 mg/kg) before PET/CT imaging. Then, ROIs were delineated for each group. After imaging, tumor tissues from both the A549 and A459-PD-L2 xenograft tumors were extracted, and the PD-L2 expression was tested by IHC. For the pharmacokinetics study, healthy BALB/C mouse received an intravenous injection of 5.55 MBq (150 μCi) of [^68Ga]Ga-HN11-1 and [^68Ga]Ga-HN11-2. Measure the activity of blood samples (%ID/g, mean ± SD) at the corresponding time points, and the time-activity curve was plotted. Subsequently, pharmacokinetic parameters were tested using the noncompartmental model in Phoenix WinNonlin 8.1 software (Certara, USA).

Series [7] can be described thus: In vitro stability in serum (radio-HPLC). Type of series: in vitro ADME. The conditions noted are these: room temperature, over 4 h (0.5, 1, 2, 4 h), 3.74 MBq, read-out: in vitro stability in serum (radiochemical purity). The protocol:
as §1

On to `CC[C@H](C)[C@H](NC(=O)[C@H](CCCNC(=N)N)NC(=O)CNC(=O)[C@H](CCC(=O)O)NC(=O)[C@H](CC(N)=O)NC(=O)[C@H](Cc1ccc(O)cc1)NC(=O)[C@H](CCCNC(=N)N)NC(=O)[C@H](Cc1ccc(O)cc1)NC(=O)[C@H](Cc1c[nH]cn1)NC(=O)COCCOCCOCCNC(=O)CN1CCN(CC(=O)O)CCN(CC(=O)O)CC1)C(=O)N[C@@H](CCCNC(=N)N)C(=O)N[C@@H](CC(N)=O)C(=O)O` [[^68Ga]Ga-HN11-1, metal not drawn] ({NOTA-AEEEA}-HYRYNEGRIRN-OH), for which the “in vitro stability in saline (radiochemical purity)” value in series [1] is listed as greater than 95%. The molecule also registered a logD in series [2] of -0.3 ± 0.0017. For the same molecule, the “tolerability / adverse pharmacological reactions” value in series [3] is “well tolerated and without adverse pharmacological reactions observed”. Moreover, the tumor uptake in series [4] (10 min after injection) is given as 2.61 ± 0.16 %ID/g; in series [4] (20 min after injection), 2.97 ± 0.18 %ID/g; in series [4] (30 min after injection), 3.36 ± 0.29 %ID/g; in series [4] (40 min after injection), 3.22 ± 0.23 %ID/g; in series [4] (50 min after injection) it was 3.06 ± 0.36 %ID/g; in series [4] (60 min after injection), 2.76 ± 0.42 %ID/g. Moreover, the “tumor uptake in A549 tumor xenograft models” value in series [5] is “almost negligible”. The “tumor uptake after blocking” value in series [6] is reported as 0.74 ± 0.03 %ID/g. For the same molecule, the remaining at 4 h in series [7] is greater than 95%.
